Test results as given in patent US9029404B2, “Apoptosis-inducing agents for the treatment of cancer and immune and autoimmune diseases” (AbbVie Inc., priority 2008, dated 2015).

target: GST-Bcl-2 (Homo sapiens, UniProt P10415); assay: Time Resolved-Fluorescence Resonance Energy Transfer (TR-FRET) Bcl-2 binding assay; details: competition with F-Bak peptide probe (100 nM); GST-Bcl-2 1 nM; Tb-anti-GST 1 nM; 3 hours at room temperature; Wang's equation
Procedure: Determination of the utility of compounds having Formula (I) as binders to and inhibitors of anti-apoptotic Bcl-2 proteins was performed using the Time Resolved-Fluorescence Resonance Energy Transfer (TR-FRET) Assay. Tb-anti-GST antibody was purchased from Invitrogen (Catalog No. PV4216).
(§1) Representative compounds were serially diluted in dimethyl sulfoxide (DMSO) starting at 50 μM (2× starting concentration; 10% DMSO) and 10 μL were transferred into a 384-well plate. The samples are then mixed on a shaker for 1 minute and incubated for an additional 3 hours at room temperature. For each assay, the probe/antibody and protein/probe/antibody were included on each assay plate as negative and positive controls, respectively. Fluorescence was measured on the Envision (Perkin Elmer) using a 340/35 nm excitation filter and 520/525 (F-Bak peptide) and 495/510 nm (Tb-labeled anti-Histidine antibody) emission filters.
as §1, with “The” for “Representative compounds were serially diluted in dimethyl sulfoxide (DMSO) starting at 50 μM (2× starting concentration; 10% DMSO) and 10 μL were transferred into a 384-well plate. The”, “were” for “are”
The inhibition constant (Ki) is the dissociation constant of an enzyme-inhibitor complex or a protein/small molecule complex, wherein the small molecule is inhibiting binding of one protein to another protein. So a large Ki value indicates a low binding affinity and a small Ki value indicates a high binding affinity.

Sequence of GST-Bcl-2 (P10415 whole entry): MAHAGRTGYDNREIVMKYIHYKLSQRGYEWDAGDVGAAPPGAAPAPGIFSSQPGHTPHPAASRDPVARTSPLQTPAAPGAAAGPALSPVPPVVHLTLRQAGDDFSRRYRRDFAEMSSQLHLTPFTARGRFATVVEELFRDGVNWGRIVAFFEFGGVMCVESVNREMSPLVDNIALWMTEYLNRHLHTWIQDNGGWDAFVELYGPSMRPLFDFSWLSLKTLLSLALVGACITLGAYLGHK

Point of comparison: CC1(C)CCC(CN2CCN(c3ccc(C(=O)NS(=O)(=O)c4cnc(OCC5(F)CCC(C)(O)CC5)c(Cl)c4)c(Oc4cnc(N)c(Cl)c4)c3)CC2)=C(c2ccc(Cl)cc2)C1 (stereo not drawn) [Example 444, 2-[(6-amino-5-chloropyridin-3-yl)oxy]-N-({5-chloro-6-[(cis-1-fluoro-4-hydroxy-4-methylcyclohexyl)methoxy]pyridin-3-yl}sulfonyl)-4-(4-{[2-(4-chlorophenyl)-4,4-dimethylcyclohex-1-en-1-yl]methyl}piperazin-1-yl)benzamide], Ki 0.018 nM. Against it:
- Cn1c(=O)[nH]c2cccc(Oc3cc(N4CCN(CC5=C(c6ccc(Cl)cc6)CC(C)(C)CC5)CC4)ccc3C(=O)NS(=O)(=O)c3ccc(OCC4(F)CCOCC4)c([N+](=O)[O-])c3)c21 [Example 426, 4-(4-{[2-(4-chlorophenyl)-4,4-dimethylcyclohex-1-en-1-yl]methyl}piperazin-1-yl)-N-({4-[(4-fluorotetrahydro-2H-pyran-4-yl)methoxy]-3-nitrophenyl}sulfonyl)-2-[(3-methyl-2-oxo-2,3-dihydro-1H-benzimidazol-4-yl)oxy]benzamide] — lower, < 0.01 nM
- CO[C@H]1CC[C@H](CNc2ccc(S(=O)(=O)NC(=O)c3ccc(N4CCN(CC5=C(c6ccc(Cl)cc6)CC(C)(C)CC5)CC4)cc3Oc3cccc4[nH]c(=O)n(C)c34)cc2[N+](=O)[O-])CC1 [Example 427, 4-(4-{[2-(4-chlorophenyl)-4,4-dimethylcyclohex-1-en-1-yl]methyl}piperazin-1-yl)-N-[(4-{[(trans-4-methoxycyclohexyl)methyl]amino}-3-nitrophenyl)sulfonyl]-2-[(3-methyl-2-oxo-2,3-dihydro-1H-benzimidazol-4-yl)oxy]benzamide] — lower, < 0.01 nM
- CC1(C)CCC(CN2CCN(c3ccc(C(=O)NS(=O)(=O)c4ccc(NC[C@H]5CC[C@H](N6CCOCC6)CC5)c([N+](=O)[O-])c4)c(Oc4cnc(N)c(Cl)c4)c3)CC2)=C(c2ccc(Cl)cc2)C1 [Example 451, 2-[(6-amino-5-chloropyridin-3-yl)oxy]-4-(4-{[2-(4-chlorophenyl)-4,4-dimethylcyclohex-1-en-1-yl]methyl}piperazin-1-yl)-N-{[4-({[trans-4-(morpholin-4-yl)cyclohexyl]methyl}amino)-3-nitrophenyl]sulfonyl}benzamide] — lower, < 0.01 nM
- CC1(C)CCC(CN2CCN(c3ccc(C(=O)NS(=O)(=O)c4ccc(NC[C@H]5CN(C6CC6)CCO5)c([N+](=O)[O-])c4)c(Oc4cnc(N)c(Cl)c4)c3)CC2)=C(c2ccc(Cl)cc2)C1 [Example 442, 2-[(6-amino-5-chloropyridin-3-yl)oxy]-4-(4-{[2-(4-chlorophenyl)-4,4-dimethylcyclohex-1-en-1-yl]methyl}piperazin-1-yl)-N-{[4-({[(2S)-4-cyclopropylmorpholin-2-yl]methyl}amino)-3-nitrophenyl]sulfonyl}benzamide] — lower, < 0.01 nM
- CC1(C)CCC(CN2CCN(c3ccc(C(=O)NS(=O)(=O)c4ccc(OC[C@H]5CC[C@](C)(O)CC5)c([N+](=O)[O-])c4)c(Oc4cnc(N)c(Cl)c4)c3)CC2)=C(c2ccc(Cl)cc2)C1 [Example 441, 2-[(6-amino-5-chloropyridin-3-yl)oxy]-4-(4-{[2-(4-chlorophenyl)-4,4-dimethylcyclohex-1-en-1-yl]methyl}piperazin-1-yl)-N-({4-[(trans-4-hydroxy-4-methylcyclohexyl)methoxy]-3-nitrophenyl}sulfonyl)benzamide] — 3-fold higher, 0.054 nM
- CC1(C)CCC(CN2CCN(c3ccc(C(=O)NS(=O)(=O)c4ccc(NCC5(F)CCOCC5)c([N+](=O)[O-])c4)c(Oc4cc(F)cc5[nH]ncc45)c3)CC2)=C(c2ccc(Cl)cc2)C1 [Example 418, 4-(4-{[2-(4-chlorophenyl)-4,4-dimethylcyclohex-1-en-1-yl]methyl}piperazin-1-yl)-2-[(6-fluoro-1H-indazol-4-yl)oxy]-N-[(4-{[(4-fluorotetrahydro-2H-pyran-4-yl)methyl]amino}-3-nitrophenyl)sulfonyl]benzamide] — lower, < 0.01 nM
- Cn1c(=O)[nH]c2cccc(Oc3cc(N4CCN(CC5=C(c6ccc(Cl)cc6)CC(C)(C)CC5)CC4)ccc3C(=O)NS(=O)(=O)c3ccc(OCC4CCOCC4)c(Cl)c3)c21 [Example 438, 4-(4-{[2-(4-chlorophenyl)-4,4-dimethylcyclohex-1-en-1-yl]methyl}piperazin-1-yl)-N-{[3-chloro-4-(tetrahydro-2H-pyran-4-ylmethoxy)phenyl]sulfonyl}-2-[(3-methyl-2-oxo-2,3-dihydro-1H-benzimidazol-4-yl)oxy]benzamide] — 1.7-fold higher, 0.031 nM
- CC1(C)CCC(CN2CCN(c3ccc(C(=O)NS(=O)(=O)c4ccc(NCC5(F)CCOCC5)c([N+](=O)[O-])c4)c(Oc4ccc(F)c5[nH]ncc45)c3)CC2)=C(c2ccc(Cl)cc2)C1 [Example 423, 4-(4-{[2-(4-chlorophenyl)-4,4-dimethylcyclohex-1-en-1-yl]methyl}piperazin-1-yl)-2-[(7-fluoro-1H-indazol-4-yl)oxy]-N-[(4-{[(4-fluorotetrahydro-2H-pyran-4-yl)methyl]amino}-3-nitrophenyl)sulfonyl]benzamide] — lower, < 0.01 nM
- CC1(C)CCC(CN2CCN(c3ccc(C(=O)NS(=O)(=O)c4ccc(NCC5CCC6(CC5)COC6)c([N+](=O)[O-])c4)c(Oc4cnc(N)c(Cl)c4)c3)CC2)=C(c2ccc(Cl)cc2)C1 [Example 450, 2-[(6-amino-5-chloropyridin-3-yl)oxy]-4-(4-{[2-(4-chlorophenyl)-4,4-dimethylcyclohex-1-en-1-yl]methyl}piperazin-1-yl)-N-({3-nitro-4-[(2-oxaspiro[3.5]non-7-ylmethyl)amino]phenyl}sulfonyl)benzamide] — lower, < 0.01 nM
- 2-[(6-amino-5-chloropyridin-3-yl)oxy]-4-(4-{[2-(4-chlorophenyl)-4,4-dimethylcyclohex-1-en-1-yl]methyl}piperazin-1-yl)-N-{[4-({[4-({[4-(methoxymethyl)cyclohexyl]methyl}amino)-3-nitrophenyl]sulfonyl}amino)-3-nitrophenyl]sulfonyl}benzamide [Example 454] — within 1.5-fold, 0.024 nM
- CC1(C)CCC(CN2CCN(c3ccc(C(=O)NS(=O)(=O)c4cnc(NCC5CCOCC5)c([N+](=O)[O-])c4)c(Oc4cnc(N)c(Cl)c4)c3)CC2)=C(c2ccc(Cl)cc2)C1 [Example 449, 2-[(6-amino-5-chloropyridin-3-yl)oxy]-4-(4-{[2-(4-chlorophenyl)-4,4-dimethylcyclohex-1-en-1-yl]methyl}piperazin-1-yl)-N-({5-nitro-6-[(tetrahydro-2H-pyran-4-ylmethyl)amino]pyridin-3-yl}sulfonyl)benzamide] — lower, < 0.01 nM
- CC1(C)CCC(CN2CCN(c3ccc(C(=O)NS(=O)(=O)c4ccc(NCC5CN(C6COC6)CCO5)c([N+](=O)[O-])c4)c(Oc4cnc(N)c(Cl)c4)c3)CC2)=C(c2ccc(Cl)cc2)C1 (stereo not shown) [Example 421, 2-[(6-amino-5-chloropyridin-3-yl)oxy]-4-(4-{[2-(4-chlorophenyl)-4,4-dimethylcyclohex-1-en-1-yl]methyl}piperazin-1-yl)-N-{[3-nitro-4-({[4-(oxetan-3-yl)morpholin-2-yl]methyl}amino)phenyl]sulfonyl}benzamide] — lower, < 0.01 nM
